From ChEMBL document CHEMBL6153170 (J Med Chem, 2025) come the findings set out here.

Structures are written as SMILES.

For assay [1], the target named is Programmed cell death protein 1/Programmed cell death 1 ligand 1 (Homo sapiens, UniProt Q9NZQ7). Briefly: Inhibition of PD-1/PD-L1 (unknown origin) protein-protein interaction by HTRF assay. The class given is protein-complex assay.
Assay [2] addresses T1, Protein deacetylase HDAC6 (Homo sapiens) (UniProt Q9UBN7).
T1 sequence (whole entry): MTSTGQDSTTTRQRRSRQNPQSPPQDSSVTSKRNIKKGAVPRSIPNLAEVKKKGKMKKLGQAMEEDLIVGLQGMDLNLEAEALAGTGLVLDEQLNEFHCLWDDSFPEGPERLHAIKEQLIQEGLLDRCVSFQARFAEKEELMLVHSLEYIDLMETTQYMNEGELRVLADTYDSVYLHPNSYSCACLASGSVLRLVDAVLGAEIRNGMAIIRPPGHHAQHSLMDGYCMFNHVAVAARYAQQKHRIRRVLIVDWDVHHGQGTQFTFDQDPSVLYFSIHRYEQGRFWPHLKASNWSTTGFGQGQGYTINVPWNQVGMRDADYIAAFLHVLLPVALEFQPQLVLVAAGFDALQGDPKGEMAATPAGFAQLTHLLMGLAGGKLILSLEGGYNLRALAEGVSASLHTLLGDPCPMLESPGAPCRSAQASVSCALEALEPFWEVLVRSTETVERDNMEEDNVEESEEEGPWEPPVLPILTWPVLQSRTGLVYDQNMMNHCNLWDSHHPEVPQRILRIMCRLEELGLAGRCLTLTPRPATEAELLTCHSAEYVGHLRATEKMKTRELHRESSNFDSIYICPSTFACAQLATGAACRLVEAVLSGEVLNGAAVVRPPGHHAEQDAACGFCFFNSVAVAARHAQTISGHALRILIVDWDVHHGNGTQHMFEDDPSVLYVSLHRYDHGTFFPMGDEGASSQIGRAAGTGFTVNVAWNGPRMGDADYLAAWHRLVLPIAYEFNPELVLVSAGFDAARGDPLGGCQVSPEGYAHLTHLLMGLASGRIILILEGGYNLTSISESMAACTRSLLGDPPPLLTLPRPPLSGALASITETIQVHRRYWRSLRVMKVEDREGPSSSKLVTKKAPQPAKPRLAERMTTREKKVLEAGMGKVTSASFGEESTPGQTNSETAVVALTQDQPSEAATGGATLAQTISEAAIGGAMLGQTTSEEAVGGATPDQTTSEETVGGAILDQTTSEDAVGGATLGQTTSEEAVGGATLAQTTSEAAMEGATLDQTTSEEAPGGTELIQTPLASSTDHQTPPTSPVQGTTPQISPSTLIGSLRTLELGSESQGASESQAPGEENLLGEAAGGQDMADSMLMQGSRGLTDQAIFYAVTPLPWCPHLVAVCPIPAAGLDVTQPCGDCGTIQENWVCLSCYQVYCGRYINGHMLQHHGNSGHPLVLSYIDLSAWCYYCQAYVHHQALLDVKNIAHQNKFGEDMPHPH
The following applies: Sf9, dose 100.0 nM, time 30.0 min.

The test system of the next assay is MCF7. Briefly: cells. The following applies: Homo sapiens, MCF7, 48 h.
The subject of another assay is B16-F10. Briefly: cells. The following applies: Mus musculus, B16-F10, 48 h.
The subject of a further assay is HepG2. Briefly: cells. As to conditions: Homo sapiens, HepG2, 48 h.
In the next assay the test system is Jurkat. Briefly: cells. The following applies: Homo sapiens, 72 h.

What is called IC50 is the concentration needed to halve the response being measured. The low end stands for higher potency, the high end for lower potency. Broadly, the inhibition is the percentage by which the read-out fell short of the control. The low end stands for a response near the control, the high end for a response far below the control.

Sequence of Programmed cell death protein 1/Programmed cell death 1 ligand 1 (Q15116 whole entry): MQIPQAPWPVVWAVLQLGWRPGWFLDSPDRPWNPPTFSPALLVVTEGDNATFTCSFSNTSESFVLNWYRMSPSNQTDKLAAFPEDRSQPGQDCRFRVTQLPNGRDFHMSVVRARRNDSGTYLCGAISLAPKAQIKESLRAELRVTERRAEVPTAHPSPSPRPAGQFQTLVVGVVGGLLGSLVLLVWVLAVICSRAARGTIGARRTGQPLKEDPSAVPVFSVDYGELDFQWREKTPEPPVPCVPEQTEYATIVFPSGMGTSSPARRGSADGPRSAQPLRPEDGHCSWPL
Sequence of Programmed cell death protein 1/Programmed cell death 1 ligand 1 (Q9NZQ7 whole entry): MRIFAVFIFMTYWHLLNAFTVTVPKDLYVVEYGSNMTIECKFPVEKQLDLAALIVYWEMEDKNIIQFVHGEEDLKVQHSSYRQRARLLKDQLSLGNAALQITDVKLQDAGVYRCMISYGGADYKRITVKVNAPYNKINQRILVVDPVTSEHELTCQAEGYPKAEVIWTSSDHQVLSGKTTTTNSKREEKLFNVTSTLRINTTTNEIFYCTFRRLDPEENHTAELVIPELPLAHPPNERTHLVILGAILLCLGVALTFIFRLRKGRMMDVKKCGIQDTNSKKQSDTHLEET

`COc1nc(-c2cccc(-c3ccccc3)c2C)ccc1CNCCCCCC(=O)Nc1ccccc1N` came in with an IC50 in assay [1] of 0.088 µM.
Same read-out and setting: in the case of `COc1nc(OCc2cccc(-c3ccccc3)c2C)ccc1CN1CCC(C(=O)Nc2ccccc2N)C1` (stereo not given) it was 0.0722 µM.
Turning to `COc1nc(-c2cccc(-c3ccccc3)c2C)ccc1CNc1ccc(C(=O)Nc2ccccc2N)s1`, the inhibition in assay [2] was < 10%. Further, the midpoint of inhibition in assay [1], the IC50, lay at 0.1 µM.
On the same counts, the results for `COc1nc(OCc2cccc(-c3ccccc3)c2C)ccc1CNCC(=O)NO` are < 10% and 0.0935 µM.
The corresponding values for `COc1nc(OCc2cccc(-c3ccccc3)c2C)ccc1CNC1CCC(C(=O)Nc2ccccc2N)CC1` (stereo not given) are < 10% and > 1 µM.
The corresponding values for `COc1nc(-c2cccc(-c3ccccc3)c2C)ccc1CN1CCC(C(=O)Nc2ccccc2N)CC1` are < 10% and 0.1 µM.
Turning to `COc1nc(OCc2cccc(-c3ccccc3)c2C)ccc1CNCCCCCC(=O)Nc1ccccc1N`, in assay [1], the IC50 was found to be 0.0963 µM.
With `COc1nc(-c2cccc(-c3ccccc3)c2C)ccc1CNCCCC(=O)Nc1ccccc1N`, the IC50 is > 10 µM with MCF7; 0.0837 µM in assay [1]; 9.82 µM in the assay on B16-F10; > 10 µM with HepG2; 7.57 µM in the assay with Jurkat.
As for `COc1nc(OCc2cccc(-c3ccccc3)c2C)ccc1CNCCCC(=O)NO`, the concentration for half-maximal inhibition (IC50) in assay [1] is > 1 µM.
Take `COc1nc(-c2cccc(-c3ccccc3)c2C)ccc1CNC1CCC(C(=O)Nc2ccccc2N)CC1` (stereo not given): in assay [2], the inhibition was < 13.5%. Further, the IC50 in assay [1] is > 1 µM.
`COc1nc(OCc2cccc(-c3ccccc3)c2C)ccc1CNc1ccc(C(=O)NO)cc1` yielded a concentration for half-maximal inhibition (IC50) in assay [1] of 0.1 µM.
For the compound `COc1nc(OCc2cccc(-c3ccccc3)c2C)ccc1CNC(C)(C)C(=O)NO`, the inhibition in assay [2] was < 10%. Moreover, in assay [1], the half-maximal inhibitory concentration (IC50) is > 1 µM.
On the same counts, the results for `CC[C@@H](NCc1ccc(-c2cccc(-c3ccccc3)c2C)nc1OC)C(=O)Nc1ccccc1N` are < 13.5% and > 1 µM.
`COc1nc(-c2cccc(-c3ccccc3)c2C)ccc1CN1CCC(C(=O)Nc2ccccc2N)C1` (stereo not given) displayed an IC50 in assay [1] of 0.099 µM.
On the same count and under the same terms, in the case of `COc1nc(OCc2cccc(-c3ccccc3)c2C)ccc1CNCCCCCCC(=O)Nc1ccccc1N` it was 0.0836 µM; in that of `COc1nc(OCc2cccc(-c3ccccc3)c2C)ccc1CN1CCCC1C(=O)Nc1ccccc1N` (stereo not given), > 1 µM.
On to `COc1nc(OCc2cccc(-c3ccccc3)c2C)ccc1CNC(C)(C)CC(=O)Nc1ccccc1N`, for which the inhibition in assay [2] is < 10%. Also, the IC50 in assay [1] worked out at 0.0906 µM.
The compound `COc1nc(-c2cccc(-c3ccccc3)c2C)ccc1Cn1ccc(C(=O)Nc2ccccc2N)c1` came in with a half-maximal inhibitory concentration (IC50) in assay [1] of 0.0852 µM.
Same read-out and setting: in the case of `COc1nc(OCc2cccc(-c3ccccc3)c2C)ccc1CNCCCCCC(=O)NO` it was 0.0683 µM.
`COc1nc(-c2cccc(-c3ccccc3)c2C)ccc1CNc1ccc(CC(=O)Nc2ccccc2N)cc1`: the inhibition in assay [2] is < 10%. This compound showed an IC50 in assay [1] of 0.1 µM.
For the compound `COc1nc(-c2cccc(-c3ccccc3)c2C)ccc1CNc1cc(C(=O)NO)c[nH]1`, the inhibition in assay [2] was < 10%. For the same compound, the IC50 in assay [1] came out at 0.1 µM.
Consider `COc1nc(OCc2cccc(-c3ccccc3)c2C)ccc1CNc1cc(C(=O)NO)c[nH]1`, for which the IC50 in assay [1] stood at 0.0876 µM.
With `CCCC[C@@H](NCc1ccc(OCc2cccc(-c3ccccc3)c2C)nc1OC)C(=O)Nc1ccccc1N`, in assay [2], the inhibition was < 10%. In assay [1], this compound came in with an IC50 of 0.1 µM.
`Nc1ccccc1NC(=O)c1ccc(CNC(=O)OCc2cccnc2)cc1`: in assay [2], the inhibition was < 10%.
In turn, `COc1nc(OCc2cccc(-c3ccccc3)c2C)ccc1CNc1cccc(C(=O)NO)c1` had an IC50 in assay [1] of 0.1 µM.
Regarding `COc1nc(-c2cccc(-c3ccccc3)c2C)ccc1CNc1ccc(CC(=O)NO)cc1`, in assay [1], inhibition was half-maximal at 0.0643 µM (IC50).
As to `COc1nc(OCc2cccc(-c3ccccc3)c2C)ccc1CNc1ccc(CC(=O)NO)cc1`, half-maximal inhibition in assay [1] (IC50) was put at 0.1 µM.
`COc1nc(-c2cccc(-c3ccccc3)c2C)ccc1CNC1(C(=O)Nc2ccccc2N)CCCC1`: in assay [2], the inhibition is < 13.5%. For the same compound, the IC50 in assay [1] is > 1 µM.
On to `COc1nc(-c2cccc(-c3ccccc3)c2C)ccc1CNCCCCC(=O)Nc1ccccc1N`, for which the IC50 in assay [1] stood at 0.1 µM.
`COc1nc(-c2cccc(-c3ccccc3)c2C)ccc1CNc1cccc(C(=O)Nc2ccccc2N)c1`: the inhibition in assay [2] is < 10%. The IC50 in assay [1] is > 1 µM.
On to `COc1nc(-c2cccc(-c3ccccc3)c2C)ccc1CNc1ccc2cc(C(=O)Nc3ccccc3N)ccc2c1`, for which, in assay [1], the concentration for half-maximal inhibition (IC50) was > 1 µM.
As for `COc1nc(-c2cccc(-c3ccccc3)c2C)ccc1CN1CCN(C(=O)NO)CC1`, the inhibition in assay [2] is < 10%. The same compound returned an IC50 in assay [1] of 0.1 µM.
On the same counts, the results for `CCCC[C@@H](NCc1ccc(-c2cccc(-c3ccccc3)c2C)nc1OC)C(=O)Nc1ccccc1N` are < 13.5% and > 1 µM.
Regarding `CCC[C@@H](NCc1ccc(OCc2cccc(-c3ccccc3)c2C)nc1OC)C(=O)Nc1ccccc1N`, the inhibition in assay [2] was < 10%. Also, the IC50 in assay [1] is 0.0975 µM.
Regarding `COc1nc(-c2cccc(-c3ccccc3)c2C)ccc1CNc1ccc(C(=O)NO)s1`, in assay [1], the midpoint of inhibition, the IC50, lay at 0.1 µM.
In turn, `COc1nc(-c2cccc(-c3ccccc3)c2C)ccc1CNCCC(=O)NO` yielded a 50% inhibitory concentration (IC50) in assay [1] of 0.0676 µM.
In the case of `CC[C@@H](NCc1ccc(OCc2cccc(-c3ccccc3)c2C)nc1OC)C(=O)Nc1ccccc1N`, in assay [2], the inhibition was < 10%. In addition, in assay [1], the concentration for half-maximal inhibition (IC50) came to 0.1 µM.
The compound `COc1nc(-c2cccc(-c3ccccc3)c2C)ccc1CNCCCCCCC(=O)Nc1ccccc1N` returned an IC50 in assay [1] of 0.1 µM.
`COc1nc(OCc2cccc(-c3ccccc3)c2C)ccc1CNc1ccc(C(=O)Nc2ccccc2N)cc1`: the 50% inhibitory concentration (IC50) in assay [1] is > 1 µM.
